row,Compound,melting point
1,CC(Cc1c[nH]c2ccccc12)(NC(=O)OC1C2CC3CC(C2)CC1C3)C(=O)NC1CCCCC1C(=O)O (centres undefined),230 to 234 °C
2,O=C1Cc2ccccc2N1Nc1ccncc1F,181 to 183 °C
3,CC(=O)NC1c2ccccc2-c2[nH]c(=O)c3nccn3c21 (centres undefined),330 °C
4,Cc1cc2c(c(C(O)=S)c1)OCCO2,181 to 183 °C
5,O=[N+]([O-])c1cnc2ccc(-c3ccccc3)cc2c1Cl,144 to 145 °C
6,COC(=O)C(=O)CC(C)C1CCC2C3CC=C4CC(OC(C)=O)CCC4(C)C3CCC12C (centres undefined),146 to 147 °C
7,CON1C(C)(C)CC(OCC2CO2)CC1(C)C (centres undefined),47 to 49 °C
8,O=C(Nc1ccc(-n2nc(C(F)(F)F)cc2C(F)(F)F)cc1)Nc1ccc(Cl)cc1[N+](=O)[O-],225 to 227 °C
9,COC(=O)c1c(C=O)n(C)c2ccc(OC)cc12,133 to 134 °C
10,COc1cc(-c2cc(C(F)(F)F)nn2-c2ccc(S(N)(=O)=O)c(F)c2)ccc1-c1cscn1,97 to 99 °C
11,CC1CC(=O)NN=C1c1ccc(N=Cc2ccccc2O)cc1 (centres undefined),207 to 209 °C
12,CC(C)NCC(O)c1ccccc1 (centres undefined),90 °C
13,COc1ccc(C2=NN(C3CCN(C(=O)NC(C)(C)C)CC3)C(=O)CC2)cc1OC,76 to 78 °C
14,Cc1ccc(-n2c(-c3ccc(CC(=O)O)cc3)ccc2-c2ccc(CC(=O)O)cc2)cc1,193 to 195 °C
15,Cn1c(-c2ccccc2)cc(O)c(C(=O)c2ccccc2)c1=O,149 to 151 °C
16,Cn1cc(C2=C(c3ccccc3)C(=O)NC2=O)c2ccccc21,230 to 232 °C
17,O=Cc1ccc(N(c2ccccc2)c2ccccc2)c2ccccc12,107 to 110 °C
18,O=P(O)(O)OP(=O)(O)O,212 °C
19,COc1cc(C)cc(-c2n[nH]cc2-c2ccnc(SC)n2)c1,143 °C
20,COc1cc(OC)c(NC2=Nc3ccccc3CS2)cc1Cl,157 to 158 °C
21,O=C(O)CC1CCc2[nH]c3ccccc3c2C1 (centres undefined),209 to 210 °C
22,CCC1(CC)OC(c2ccc(S(C)(=O)=O)cc2)=C(c2ccccc2)C1=O,139 to 140 °C
23,C#CCN(c1ccc(C(=O)OC(C)(C)C)cc1)C1CCc2cc3nc(COC)[nH]c(=O)c3cc21 (racemic),191 to 192 °C
24,COc1ccc2[nH]cc(C)c2c1OCc1ccccc1,60 to 61 °C
25,O=[N+]([O-])CS(=O)(=O)c1ccc(Oc2ccccc2)cc1,118 to 120 °C

row,Compound,melting point
1,CCCCCCCCCCCCCCCCCCOC(=O)c1ccc(C)c(N)c1,79 °C
2,O=Cc1c2n(c3cc4c(cc13)OCO4)CCC2,169 to 170 °C
3,CNC(=O)c1ccc(-c2ccc3oc(C4CCN(C(=O)OC(C)C)CC4)nc3c2)cc1C,151 to 154 °C
4,CCOC(=O)C(=O)Nc1c([N+](=O)[O-])cc(Br)c2ccccc12,190 to 191 °C
5,CN(C)CC(F)(F)[C@H](O)[C@@H](N)CC1CCCCC1,47 to 49 °C
6,CCCCCC(=N)NC(=O)Nc1ccc(Cl)cc1,175 to 179 °C
7,O=P(O)(O)C(O)(CC(O)c1ccccc1)P(=O)(O)O (centres undefined),132 °C
8,CCn1c(=O)c2c(nc(C=Cc3ccc(C(=O)O)cc3OC)n2C)n(CC)c1=O,> 280 °C
9,CC(=O)C(=Cc1ccc(C(F)(F)F)cc1)C(C)=O,46 to 48 °C
10,Nc1nc2ccccc2c2c1ncn2CCCCNC(=O)c1cccc(Oc2ccccc2)c1,105 to 107 °C
11,CCN(CC)c1ccc(C=O)c(OCc2ccccn2)c1,78 to 81 °C
12,Cc1ccc([N+](=O)[O-])cc1S(=O)(=O)n1c(Br)nc(Br)c1C,187 to 189 °C
13,CCCCn1c(=O)n(OCc2ccccc2)c(=O)c2cc(F)c(Cl)nc21,147 to 148 °C
14,C=CCOc1ncc(F)c(C2(C(=O)NN)C=CC=C(C)C2)n1 (centres undefined),181 to 185 °C
15,Cc1nc(COc2ccc3c(c2)[C@H](O)[C@H](Cc2cccnc2)CO3)ccc1Br (relative stereo),134 to 137 °C
16,Clc1cccc(-c2nc(-c3ccccn3)no2)c1,136 to 140 °C
17,O=C1C=CC(O)(c2cccc3ccccc23)C=C1,117 to 118 °C
18,CCOC(=O)c1nn(-c2ccccc2)c2c1CCCC2,102 to 103 °C
19,CC(=O)OCCN1C(=O)N2CCOC2(c2ccccc2)c2cc(Cl)ccc21 (centres undefined),121 to 123 °C
20,Cc1ccnc(NC(=O)c2ccn3c2CSC3c2cccnc2)c1 (centres undefined),163 °C
21,COc1cc(OC)c(-c2cc3ccccc3[nH]2)cc1C=CC(=O)c1ccc(S(N)(=O)=O)cc1,185 to 187 °C
22,CCOC(=O)/C=C/c1ccc(OCCOC2CC2)cc1Oc1ncc(C(F)(F)F)cc1Cl,75.4 to 75.9 °C
23,Cc1ccc(SCC(=O)O)o1,35 to 36 °C
24,O=C(Nc1nc(=O)c2cnn3c2n1CC=C3c1cccc(C(F)(F)F)c1)c1ccccc1,235 to 239 °C
25,Cc1cn(-c2cccc(OCCOS(N)(=O)=O)c2)cn1,169 to 170 °C

row,Compound,melting point
1,Cc1c(OCC(C)(C)CS(N)(=O)=O)nn2ccnc2c1C,222 to 225 °C
2,O=C1OC(=O)C(c2ccccc2)=C1c1ccccc1,183 to 184 °C
3,COc1cc(C(=O)O)cc(OC)c1-c1ccc(C[C@H](NC(=O)c2c(Cl)cccc2Cl)C(=O)O)cc1,277 to 278 °C
4,CCc1cc(C(=O)c2ccccc2Cl)c(-n2cnnc2CNC(=O)c2cc3ccccc3n2CC(=O)O)s1,218 to 220 °C
5,CC(C)(C)OC(=O)Nc1cc(OCC#N)c(C#Cc2ccccc2)cc1[N+](=O)[O-],170 °C
6,O=C(c1ccc(F)c(F)c1)N1CCC[C@H](c2nc(-c3ccncc3)no2)C1,102 to 106 °C
7,Cc1cc(-c2c(-c3ccc(S(N)(=O)=O)cc3)cnn(-c3ccc(F)c(Cl)c3)c2=O)ccc1F,243 to 245 °C
8,O=c1oc(-c2cc(C(F)(F)F)cc(C(F)(F)F)c2)cc(O)c1SCc1ccccc1,80 to 82 °C
9,COc1c(C(C)(C)C)cc(C(C)=O)c(O)c1Br,69 to 71 °C
10,C[Si](C)(C)CCC1=C(OC(=O)c2ccccc2)C(=O)c2ccccc2C1=O,92 to 95 °C
11,O=C(O)C1=Cc2cc(Oc3ccc(Cl)cc3)ccc2OC1C(F)(F)F (centres undefined),140 to 142 °C
12,CCc1cc(S(=O)(=O)c2ccc(N)cc2)cc(N2CCCC2)n1,154 to 155 °C
13,Nc1nc2cc3c(cc2[nH]1)OCO3,230 to 243 °C
14,CC1=NN(C)c2nc(C)c(CCN3CCN(c4n[nH]c5ccccc45)CC3)c(=O)n2C1,199 °C
15,Cc1nc(OC(F)F)c(C#N)c(N2CCc3ccccc3CC2)n1,143 °C
16,CCCS(=O)(=O)c1cc(C(C)C)c(C#N)cc1C(C)C,113 to 115 °C
17,O=C1OC2=C(COc3ccccc32)C1=O,146 to 148 °C
18,CN1CC(OC(=O)C(c2ccccc2)c2ccccc2)CNC1=N[N+](=O)[O-] (centres undefined),187 °C
19,COC(=O)C=CC=CCS(=O)c1ccccc1 (centres undefined),82 to 84 °C
20,Cc1nsc(CCCOc2c(C)cc(-c3noc(C(F)F)n3)cc2C)n1,62 to 64 °C
21,CCc1nc2c(cnn2CC)c(NC2CCOCC2)c1CNC(=O)c1cccc(C(=O)NCc2ccc(Cl)c(-c3cccc(CN4CCCN(C)CC4)c3)c2)c1,105 to 107 °C
22,CN1C(=O)N(CCN=C=O)C(C)(C)C1=O,62 °C
23,CCOC(=O)c1c(C(F)(F)F)nc(C(F)F)c(C(=O)OC)c1F,40 to 41 °C
24,CCc1nnc(-c2ccc(OC)cc2)n1-c1cccc(C(F)(F)F)c1,140 °C
25,CC(=NN)c1ccc2c(c1)C(C(Cl)(Cl)Cl)OC(C(Cl)(Cl)Cl)O2 (centres undefined),159 °C

row,Compound,melting point
1,CCCOc1nc2ccc(Br)cc2c(=O)n1CCC,57 to 59 °C
2,O=C(NCc1ccccc1)c1ccc(-c2ccc3nnn(Cc4ccc5ncccc5c4)c3n2)cc1F,163 to 165 °C
3,COc1ccc(C2Sc3cccc4cccc(c34)N(CCN(C)C)C(=O)C2O)cc1 (centres undefined),121 to 122 °C
4,CCS(=O)c1nc(N2CCNCC2)c2sc3nc(-c4ccccc4)cc(C)c3c2n1 (centres undefined),165 to 170 °C
5,Clc1ccc2c(c1)C(=C1CCN(CC3CCC3)CC1)c1ccccc1S2,180 to 182 °C
6,OCc1nn(Cc2ccccc2)c2ccccc12,85 to 86 °C
7,CCOC(=O)c1nc(-c2ccc(N3CCOCC3)cc2)[nH]c1-c1ccc(Cl)cc1,215 °C
8,CN(C)S(=O)(=O)c1c(C(F)(F)F)nn(-c2c(Cl)cc(C(F)(F)F)cc2Cl)c1N,178 to 179 °C
9,CC(=O)SCCNc1nc(-c2ccccc2)c2cc(Cl)ccc2n1,129 °C
10,CC(C)[C@H](NC(=O)OCc1ccccn1)C(=O)N[C@@H](Cc1ccccc1)C[C@H](O)[C@H](Cc1ccccc1)NC(=O)[C@@H](NC(=O)OCc1ccccn1)C(C)C,220 to 222 °C
11,O=C1c2ccccc2C(=O)N1CCc1c[nH]c2ccc(Br)cc12,206 to 209 °C
12,O=C(C1=C(c2ccccc2)c2ccc(O)cc2C1)c1ccc(O)cc1,191 to 192 °C
13,CNC(=O)NCCCn1cc(Cn2ccnc2)c2ccccc21,123 to 124 °C
14,COC[C@H]1CN(C2=Nc3ccccc3Nc3sc(C)cc32)CCN1C,76 to 80 °C
15,O=C(NCCOc1ccc(-c2noc(=O)[nH]2)cc1)C1Cc2ccccc2N1S(=O)(=O)c1ccc(-c2cccc(C(F)(F)F)c2)cc1 (centres undefined),123 to 130 °C
16,Cc1nc(-c2ccc(C(F)(F)F)cc2)sc1C(=O)N[C@H](C)[C@](O)(Cn1cncn1)c1ccc(F)cc1F,79 to 82 °C
17,C=CCn1c(=O)n(CCCCO)c2nc(N)nc(Cl)c21,132 to 133 °C
18,Cc1c(NC(=O)c2ccc(OC[C@@H]3CCCO3)cc2)ccc2cc(CN3CCC(C)(O)CC3)cnc12,169 to 174 °C
19,CNC(=S)C1(c2cccc(C)n2)CCCO1 (centres undefined),151 °C
20,CC(C)=CCn1ccnc1[N+](=O)[O-],48 to 49 °C
21,NC(=O)[C@@H]1[C@H](Nc2c(Br)cnc3[nH]c(-c4cccnc4N4CCOCC4)nc23)[C@H]2C=C[C@@H]1C2,150 °C
22,CCc1noc(C=C(N)c2ccccc2)c1C(=O)NC,125 to 132 °C
23,CCCCc1ccc(-c2ccc(CCc3ccc(Cl)cc3)cc2)c(F)c1,49 °C
24,O=C(NCc1ccc(C(F)(F)F)cc1)Nc1cccc2[nH]ccc12,178 °C
